Measured values as given in ChEMBL document CHEMBL1201862, “PubChem BioAssay data set” (2004).
Activity calls are given as the source filed them.

Key:
[1] = M. tuberculosis H37Rv growth inhibitors, H37Rv strain (AID 1626); assay type: functional
Cytochrome P450 2C19 = Cytochrome P450 2C19 (Homo sapiens, UniProt P33261); experiment: Cytochrome panel assay with activity outcomes. Panel member name: p450-cyp2c19 Compounds with AC50 equal or less than 10 uM are considered active; assay type: functional; conditions: read-out: AC50
[2] = inhibitors of intracellular T. cruzi replication, confirmation, NIH3T3 host cells, beta-gal luminescence (AID 2044); assay type: functional, cell-based;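 also: intracellular parasites grown in NIH/3T3 mouse fibroblasts as host cells; luminescent beta-galactosidase reporter signal from transgenic T. cruzi replicating inside host cells; inhibitors lower the luminescence signal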
Prothrombin = Prothrombin (Homo sapiens, UniProt P00734); experiment: Thrombin 1536 HTS Dose Response Confirmation. [Related pubchem assays: 1046 (Thrombin 1536 HTS; hits were confirmed in this assay)]; assay type: functional
[3] = cytotoxicity toward NIH3T3 fibroblasts, dose response, counter-screen, cell-based, ATP luminescence, mouse fibroblasts (AID 2010); assay type: functional;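 also: cells exposed to compound for about 90 hours before reading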
Estrogen receptor = molecular target: T1, Estrogen receptor (Homo sapiens, UniProt P03372);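 also: potency for inhibiting coactivator peptide recruitment to the receptor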
T1 sequence (P03372 whole entry): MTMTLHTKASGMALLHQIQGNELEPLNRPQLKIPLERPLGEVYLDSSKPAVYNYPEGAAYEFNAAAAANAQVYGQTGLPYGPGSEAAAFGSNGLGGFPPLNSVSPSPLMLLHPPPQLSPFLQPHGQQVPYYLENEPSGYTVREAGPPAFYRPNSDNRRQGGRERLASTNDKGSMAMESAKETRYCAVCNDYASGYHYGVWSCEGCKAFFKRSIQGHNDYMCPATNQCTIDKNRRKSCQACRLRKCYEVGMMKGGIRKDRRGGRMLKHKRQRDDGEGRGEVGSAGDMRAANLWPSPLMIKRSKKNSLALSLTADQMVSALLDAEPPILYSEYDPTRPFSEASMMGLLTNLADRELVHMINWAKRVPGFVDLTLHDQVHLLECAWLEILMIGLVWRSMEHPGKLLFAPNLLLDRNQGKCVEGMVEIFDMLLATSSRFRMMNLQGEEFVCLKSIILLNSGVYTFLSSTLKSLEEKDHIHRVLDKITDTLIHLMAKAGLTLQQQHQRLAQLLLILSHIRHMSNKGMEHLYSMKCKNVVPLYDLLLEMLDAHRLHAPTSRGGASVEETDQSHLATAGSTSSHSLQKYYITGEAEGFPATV

Protein Tat = molecular target: T2, Protein Tat (Human immunodeficiency virus type 1 group M subtype B (isolate HXB2)(HIV-1), UniProt P04608); assay type: functional;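 also: tat binding to TAR RNA read out by fluorescence polarization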
T2 sequence (P04608 whole entry): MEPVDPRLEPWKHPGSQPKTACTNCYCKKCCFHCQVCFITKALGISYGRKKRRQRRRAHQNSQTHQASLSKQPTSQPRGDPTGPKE

cells [4] = experiment: cells
[5] = P. falciparum 3D7-ScDHODH growth inhibitors, dose response, SYBR Green, dry powder samples (AID 1159570); assay type: functional, cell-based;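 also: parasite growth measured after 72 hours of compound exposure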
[6] = HepG2 cell cytotoxicity, dose response, cytotoxicity control, plate reader, dry powder samples (AID 1159569); assay type: functional, cell-based;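 also: inhibitor potency with signal falling toward the positive control level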
[7] = P. falciparum Dd2 growth inhibitors, dose response, SYBR Green, cherry-picked samples (AID 1159567); assay type: functional, cell-based
[8] = P. falciparum Dd2 growth inhibitors, dose response, SYBR Green, dry powder samples (AID 1159566); assay type: functional, cell-based;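 also: potency for growth inhibition with lower SYBR green DNA signal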
[9] = P. falciparum ATP4 D1247Y mutant growth inhibitors, dose response, NITD609-resistant line, SYBR Green, dry powder (AID 1159571); assay type: functional, cell-based;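 also: parasites synchronized at ring stage by sorbitol before testing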
Cytochrome P450 2D6 = Cytochrome P450 2D6 (Homo sapiens, UniProt P10635);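 also: CYP2D6 member of a cytochrome P450 panel assay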
Cytochrome P450 3A4 = Cytochrome P450 3A4 (Homo sapiens, UniProt P08684);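 also: CYP3A4 tested as one member of a cytochrome P450 panel screen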
[10] = system: Streptococcus sp. 'group A'; experiment: growth inhibition of control SK(-) GAS strain, dose response, counter-screen for streptokinase expression inhibitor project, luminescence, kanamycin, BacTiterGlo, confirmation (AID 1900); assay type: functional, organism-based
Streptokinase A = molecular target: T3, Streptokinase A (Streptococcus pyogenes serotype M1, UniProt P10520); experiment: S. pyogenes streptokinase expression inhibitors, potency, dose response, plasminogen activation absorbance, OD405 (AID 1914); assay type: functional, Streptococcus pyogenes M1 GAS;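 also: secreted streptokinase activity via plasminogen activation per viability signal from cell pellet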
T3 sequence (P10520 whole entry): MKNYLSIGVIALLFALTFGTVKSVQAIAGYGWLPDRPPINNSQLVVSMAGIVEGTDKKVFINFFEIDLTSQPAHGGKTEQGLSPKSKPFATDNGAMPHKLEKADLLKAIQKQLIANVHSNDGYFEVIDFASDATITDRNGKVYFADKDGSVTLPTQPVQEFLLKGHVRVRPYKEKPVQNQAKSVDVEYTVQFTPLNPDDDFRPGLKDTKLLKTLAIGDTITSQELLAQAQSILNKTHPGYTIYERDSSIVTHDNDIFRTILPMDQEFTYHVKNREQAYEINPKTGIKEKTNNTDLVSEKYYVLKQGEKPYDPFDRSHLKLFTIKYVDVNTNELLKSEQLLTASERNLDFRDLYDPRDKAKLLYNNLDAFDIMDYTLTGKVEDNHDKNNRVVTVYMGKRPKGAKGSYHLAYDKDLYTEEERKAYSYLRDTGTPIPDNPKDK

[11] = Luminescence-based dose response cell-based high throughput screening assay for cytotoxic compounds using the IEC-6 intestinal epithelial cell line. [Related pubchem assays: 1858 (Summary AID.), 1825 (Counterscreen.), 1907 (Confirmation screen.)]; assay type: functional
Streptococcus = experiment: Group A Streptococcus viability loss, dose response, counter-screen for streptokinase expression inhibitor project, luminescence, BacTiterGlo (AID 1915); assay type: functional, organism-based;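 also: potency for reduction of bacterial viability or growth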
Trypsin = Trypsin (Sus scrofa, UniProt P00761); experiment: porcine trypsin inhibitors, dose response, selectivity assay for Rce1 protease inhibitor project, biochemical, quenched peptide fluorescence, cherry-pick (AID 488789)
[12] = luciferase reporter signal reduction – luminescence, H4-C neuroglioblastoma cells, dose response (AID 2458); assay type: functional, cell-based;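 also: H4 neuroglioblastoma cells stably carrying a luciferase reporter gene fusion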
cells [13] = assay type: functional, cell-based
[14] = Luminescence Cell-Based Dose Response HTS to Identify Inhibitors of 5'UTR Stem-Loop Driven Prion Protein mRNA Translation in H4 Neuroglioblastoma Cells. [Related pubchem assays: 1827 (Project Summary), 1813 (Primary HTS)]; assay type: functional
[15] = inhibitors of SNCA 5'UTR-driven reporter translation, confirmation, H4 neuroglioma cells, luminescence (AID 1988); assay type: functional, cell-based
[16] = inhibitors of SNCA 5'UTR-driven translation, confirmation, luminescence, H4 neuroglioblastoma cells, dose confirmation (AID 2454); assay type: functional, cell-based;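 also: H4 neuroglioblastoma cells carrying an alpha-synuclein 5'UTR luciferase reporter; potency for inhibition of the luciferase signal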
[17] = cytotoxicity in HEK-293T cells, dose response, cytotoxicity control for TCR NF-kB inhibitor project, luminescence, T-cell screen hits (AID 489026); assay type: functional, cell-based;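 also: cells exposed to compound about 14 hours before the viability readout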
[18] = Concentration-dependent survival of SW480 colon cancer line, luminescence detection with CellTiter-Glo, half-maximal inhibitory concentration (AID 1117338); assay type: functional
[19] = RKO cell viability reduction, dose response, CellTiter-Glo luminescence (AID 1117322); assay type: functional
[20] = cytotoxicity toward HCT116 cells – cell-based, CellTiter-Glo luminescence, IC50, dose response (AID 1117332); assay type: functional; conditions: HCT-116
[21] = SNU-C1 cell viability reduction, dose response, CellTiter-Glo luminescence (AID 1117323); assay type: functional, cell-based
[22] = cytotoxicity toward Colo320 cells – cell-based, CellTiter-Glo luminescence, IC50, dose response (AID 1117334); assay type: functional; conditions: COLO 320
[23] = cytotoxicity toward HT-29 cells – cell-based, CellTiter-Glo luminescence, IC50, dose response (AID 1117330); assay type: functional
[24] = CellTiter-Glo luminescent dose response of DLD-1 viability loss (AID 1117352); assay type: functional
[25] = HCT116 cell viability decrease, GSK3B pretreatment – CellTiter-Glo, IC50, dose response (AID 1117339); assay type: functional; conditions: HCT-116
[26] = molecular target: T4, Heat shock factor protein 1 (Mus musculus, UniProt P38532); experiment: inhibition of MG132-induced HSE-luciferase signal, confirmation, cell-based, NIH3T3, luminescence, dose retest (AID 2382); assay type: functional;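 also: NIH3T3 fibroblasts with HSF1-driven luciferase reporter stressed by proteasome inhibitor MG132; luminescence from HSF1-driven luciferase expression after 8 hours of MG132 stress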
T4 sequence (P38532 whole entry): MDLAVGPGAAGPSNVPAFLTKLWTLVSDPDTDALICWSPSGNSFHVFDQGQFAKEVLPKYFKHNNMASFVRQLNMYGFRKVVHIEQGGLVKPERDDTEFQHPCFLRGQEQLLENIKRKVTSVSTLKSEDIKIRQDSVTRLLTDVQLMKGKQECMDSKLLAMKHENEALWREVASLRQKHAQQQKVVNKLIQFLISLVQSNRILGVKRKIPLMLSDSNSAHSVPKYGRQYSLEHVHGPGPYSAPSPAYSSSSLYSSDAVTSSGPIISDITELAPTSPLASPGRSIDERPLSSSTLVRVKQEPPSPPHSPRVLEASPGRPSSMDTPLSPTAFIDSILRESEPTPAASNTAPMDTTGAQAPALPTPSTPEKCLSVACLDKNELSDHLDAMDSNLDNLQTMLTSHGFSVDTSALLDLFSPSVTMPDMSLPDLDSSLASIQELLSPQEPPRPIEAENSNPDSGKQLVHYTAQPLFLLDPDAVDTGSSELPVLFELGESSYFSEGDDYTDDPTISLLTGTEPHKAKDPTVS

Large T antigen = Large T antigen (Simian virus 40, UniProt P03070); assay type: functional, Betapolyomavirus macacae;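 also: Confirmatory-stage PubChem screen for compounds that inhibit SV40 T antigen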
[27] = THP-1 cell cytotoxicity, dose response, cytotoxicity control for Vif-APOBEC3G degradation inhibitor project, THP-1 cells (AID 1117359); assay type: functional; conditions: Human immunodeficiency virus 1, THP-1
Escherichia coli = experiment: microbe, parasite or virus in culture

Cytochrome P450 3A4, sequence (P08684 whole entry): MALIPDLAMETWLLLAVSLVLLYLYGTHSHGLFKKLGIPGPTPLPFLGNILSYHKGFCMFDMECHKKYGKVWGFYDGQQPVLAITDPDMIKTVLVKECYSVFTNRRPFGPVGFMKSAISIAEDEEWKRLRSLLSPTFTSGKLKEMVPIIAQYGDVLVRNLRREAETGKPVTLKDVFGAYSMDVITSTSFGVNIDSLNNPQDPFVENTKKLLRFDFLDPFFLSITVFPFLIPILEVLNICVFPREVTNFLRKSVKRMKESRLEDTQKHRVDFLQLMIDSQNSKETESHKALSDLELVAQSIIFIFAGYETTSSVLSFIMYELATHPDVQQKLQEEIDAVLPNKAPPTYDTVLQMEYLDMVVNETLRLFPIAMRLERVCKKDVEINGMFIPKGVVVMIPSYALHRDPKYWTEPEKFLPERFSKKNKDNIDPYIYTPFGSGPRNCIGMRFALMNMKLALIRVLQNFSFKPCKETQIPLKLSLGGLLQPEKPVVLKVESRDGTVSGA
Cytochrome P450 2D6, sequence (P10635 whole entry): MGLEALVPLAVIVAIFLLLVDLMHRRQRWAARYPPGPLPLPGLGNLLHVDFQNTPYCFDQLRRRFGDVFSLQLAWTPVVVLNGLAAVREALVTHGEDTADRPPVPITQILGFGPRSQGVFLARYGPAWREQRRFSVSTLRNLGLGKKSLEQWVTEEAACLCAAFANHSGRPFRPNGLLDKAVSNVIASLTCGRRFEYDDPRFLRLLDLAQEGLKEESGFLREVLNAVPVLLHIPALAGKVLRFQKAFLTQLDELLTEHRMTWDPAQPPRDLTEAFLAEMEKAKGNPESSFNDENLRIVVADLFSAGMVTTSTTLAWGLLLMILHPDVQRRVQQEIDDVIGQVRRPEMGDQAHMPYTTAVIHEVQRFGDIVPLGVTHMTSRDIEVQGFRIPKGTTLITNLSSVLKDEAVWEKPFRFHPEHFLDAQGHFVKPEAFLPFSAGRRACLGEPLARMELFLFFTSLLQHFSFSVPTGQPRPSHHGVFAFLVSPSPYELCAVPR
Large T antigen, sequence (P03070 whole entry): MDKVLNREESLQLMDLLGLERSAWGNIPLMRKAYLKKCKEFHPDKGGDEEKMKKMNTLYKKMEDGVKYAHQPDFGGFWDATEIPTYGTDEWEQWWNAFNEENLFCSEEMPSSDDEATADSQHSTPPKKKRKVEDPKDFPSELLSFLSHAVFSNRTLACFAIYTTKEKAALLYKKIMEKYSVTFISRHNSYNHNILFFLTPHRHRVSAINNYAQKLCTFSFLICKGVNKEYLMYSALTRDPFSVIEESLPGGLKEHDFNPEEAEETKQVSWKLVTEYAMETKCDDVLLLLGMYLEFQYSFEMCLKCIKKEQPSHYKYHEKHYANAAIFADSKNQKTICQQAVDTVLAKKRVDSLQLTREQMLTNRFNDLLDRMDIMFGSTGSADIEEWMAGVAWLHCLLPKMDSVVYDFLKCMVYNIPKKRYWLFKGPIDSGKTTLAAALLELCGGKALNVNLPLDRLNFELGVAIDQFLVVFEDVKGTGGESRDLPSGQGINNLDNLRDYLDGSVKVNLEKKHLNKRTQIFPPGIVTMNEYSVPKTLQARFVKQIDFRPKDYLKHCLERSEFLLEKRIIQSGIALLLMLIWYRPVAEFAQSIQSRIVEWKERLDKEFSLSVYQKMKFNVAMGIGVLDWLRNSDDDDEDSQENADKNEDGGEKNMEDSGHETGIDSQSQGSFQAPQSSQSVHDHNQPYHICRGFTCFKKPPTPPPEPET
Cytochrome P450 2C19, sequence (P33261 whole entry): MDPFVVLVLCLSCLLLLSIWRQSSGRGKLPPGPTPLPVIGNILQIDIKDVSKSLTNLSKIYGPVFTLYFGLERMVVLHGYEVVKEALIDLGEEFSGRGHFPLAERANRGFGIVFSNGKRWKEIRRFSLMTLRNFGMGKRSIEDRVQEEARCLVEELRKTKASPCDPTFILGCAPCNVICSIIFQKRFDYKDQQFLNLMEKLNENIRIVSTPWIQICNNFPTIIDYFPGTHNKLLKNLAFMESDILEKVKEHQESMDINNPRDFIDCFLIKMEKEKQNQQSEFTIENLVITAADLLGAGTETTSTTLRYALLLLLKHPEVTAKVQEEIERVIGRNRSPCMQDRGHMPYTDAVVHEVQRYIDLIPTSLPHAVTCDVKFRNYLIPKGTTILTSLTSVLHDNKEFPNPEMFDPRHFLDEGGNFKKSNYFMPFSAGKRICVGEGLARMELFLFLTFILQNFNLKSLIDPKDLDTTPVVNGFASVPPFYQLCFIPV
Trypsin, sequence (P00761 whole entry, the tested form may be a part): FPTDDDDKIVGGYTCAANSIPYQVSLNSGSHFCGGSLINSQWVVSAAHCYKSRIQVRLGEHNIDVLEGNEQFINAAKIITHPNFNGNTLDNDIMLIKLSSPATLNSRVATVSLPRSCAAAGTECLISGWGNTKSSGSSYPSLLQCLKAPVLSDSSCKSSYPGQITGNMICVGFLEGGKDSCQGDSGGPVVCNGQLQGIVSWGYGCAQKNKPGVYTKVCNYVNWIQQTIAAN

Oc1c(/C=N/c2ccc(Oc3ccccc3)cc2)cnn1-c1cccc(Cl)n1
IC50 [1]: > 100 µM (active) | AC50 (Cytochrome P450 2C19): 11.2 µM (inconclusive)

Cc1cc(C)c2c3c(sc2n1)C(c1cccc(F)c1)C(C#N)=C(N)O3 (stereo not given)
EC50 [2]: 0.191 µM (active) | IC50 (Prothrombin): > 50 µM (not active) | EC50 [3]: > 30 µM (not active)

COc1ccc(N(C(=O)c2ccco2)S(=O)(=O)c2ccccc2)cc1
IC50 (Prothrombin): 4.64 µM (active)

CCC/C(=N/Nc1ccc(Cl)cc1)c1cnnc(-c2ccccc2)n1
IC50 (Estrogen receptor): 3.85 µM (active)

CC1=C(C#N)C(=O)N(C)C(C)(C)C1
IC50 (Protein Tat): > 100 µM (active)

CN(C)CCN(C(=O)c1ccc(S(=O)(=O)N(C)C)cc1)c1nc2cc3c(cc2s1)OCCO3
EC50 [2]: < 0.1 µM (active) | EC50 [3]: > 30 µM (not active) | EC50 (cells [4]): 0.069 µM (active)

COc1cccc(OCc2nnc(SCC(=O)NCc3ccco3)n2CCc2ccccc2)c1
IC50 (Estrogen receptor): > 50 µM (not active)

CN(C)C(=O)c1cccc(-c2cccc(-c3nc(C(=O)NC4CCCCC4)cc4c3[C@@H](CCO)N([S@+]([O-])C(C)(C)C)C4)c2)c1
AC50 [5]: 0.806 µM (active) | AC50 [6]: 31.4 µM (active) | AC50 [7]: 1.62 µM (active) | AC50 [8]: 0.232 µM (active) | AC50 [9]: 0.484 µM (active)

Cc1ccc(CCN2CC(C(=O)NCCCN(C)Cc3ccccc3)CC2=O)cc1 (stereo not given)
EC50 [2]: < 0.1 µM (active) | EC50 [3]: 15.8 µM (active) | AC50 (Cytochrome P450 2D6): 14.1 µM (inconclusive) | AC50 (Cytochrome P450 3A4): 31.6 µM (inconclusive) | EC50 (cells [4]): 0.033 µM (active)

COC(=O)c1ccc(COC(=O)CNS(=O)(=O)c2ccccc2)cc1
IC50 (Prothrombin): > 50 µM (not active)

CCOc1ccc2[nH]c3c(N4CCc5ccccc5C4)ncnc3c2c1
EC50 [10]: 10.4 µM (active) | EC50 (Streptokinase A): > 150 µM (not active) | IC50 [11]: 5.99 µM (active) | EC50 (Streptococcus): 19.9 µM (active) | AC50 (Trypsin): 6.04 µM (active)

CC/C=C/CC(=O)N[C@@H](c1ccccc1)[C@@H](O)C(=O)O[C@H]1C[C@@]2(O)[C@@H](OC(=O)c3ccccc3)C3[C@](C)(C(=O)[C@H](OC(C)=O)C(=C1C)C2(C)C)[C@@H](O)C[C@H]1OC[C@@]31OC(C)=O (stereo not given in full)
EC50 [12]: 0.062 µM (active) | EC50 (cells [13]): 0.307 µM (active) | EC50 [14]: < 0.1 µM (active) | EC50 [15]: < 0.1 µM (active) | IC50 [11]: 0.0795 µM (active) | EC50 [16]: 0.021 µM (active) | IC50 [17]: > 80 µM (inactive)

COCC(C)N(C(=O)CCl)c1c(C)csc1C (stereo not given)
IC50 [18]: > 20 µM (inactive) | IC50 [19]: > 20 µM (inactive) | IC50 [20]: > 20 µM (inactive) | IC50 [21]: > 20 µM (inactive) | IC50 [22]: > 20 µM (inactive) | IC50 [23]: > 20 µM (inactive) | IC50 [24]: > 20 µM (inactive) | IC50 [25]: > 20 µM (inactive)

CCCCCCCCCCCCCCCCC(C(=O)O)C(O)(CC(=O)O)C(=O)O (stereo not given)
IC50 [18]: 1.2 µM (active) | IC50 [19]: 3.48 µM (active) | IC50 [20]: 8.68 µM (inactive) | IC50 [21]: 1.36 µM (active) | IC50 [22]: 1.36 µM (active) | IC50 [23]: 4.1 µM (active) | IC50 [24]: 4.28 µM (active) | IC50 [25]: 4.34 µM (active)

OC1CCN(Cc2cccc(Oc3ccccc3)c2)CC1
EC50 [26]: > 195 µM (not active) | EC50 [2]: < 0.1 µM (active) | EC50 [3]: > 30 µM (not active) | EC50 (cells [4]): 0.073 µM (active)

O=C(CCC(=O)Nc1ccc(Oc2ccccc2)cc1)NCCO
IC50 [1]: > 100 µM (active)

Cc1c(NC(=O)CN2CCN(c3ccc(O)cc3)CC2)c(=O)n(-c2ccccc2)n1C
IC50 (Large T antigen): 13.7 µM (active) | IC50 (Protein Tat): > 100 µM (active) | CC50 [27]: > 40 µM (active) | AC50 (Escherichia coli): 38.1 µM (active)
